Several values for one entry are separate records, joined by “and”; a condition that tells them apart may be missing. Identical values can stand only once. Like-named read-outs stand apart in the source and are kept apart here.
Tests used:
[1] = biological target: T1, Human HSP90 alpha (Homo sapiens, UniProt P07900); experiment: Assay for the activity of inhibiting HSP90 enzyme (ATPase, malachite green); format: biochemical; details: purified human HSP90 alpha, 1 mM ATP added, 37° C. for two hours, OD655
T1 construct: His tag (inferred from purification on a HisPrep FF column); made in house; host or cells: E. coli BL21 codon plus (Stratagene)
Protocol: Introduction of pETHuHSP90a into E. coli (BL21 codon plus; Stratagene) was followed by O/N incubation in the presence of 0.1 mM IPTG, and the collected E. coli cells were disrupted by ultrasonication in a Lysis buffer (50 mM Tris-HCl (pH8.0), 10 mM MgCl2, 0.1% Triton X-100, Protease inhibitor cocktail tablets (Roche Diagnostics)). The cell lysate solution was centrifuged (10,000 rpm×30 minutes), and the supernatant obtained after centrifugation was used as a crude extract. The crude extract was fractionated using HisPrep FF column and HiTrap Q column (Amersham) to prepare a purified enzyme solution.
An enzyme solution for assays was prepared by dilution of the purified enzyme solution using an assay buffer (50 mM Tris HCl pH7.6, 20 mM KCl, 5 mM MgCl2).
10 μL each of various concentrations of the test substances (10% DMSO solution) was added to each well, and for the positive control wells, 10 μL of 10% DMSO was added. 10 μL of 10% DMSO was also added to the negative control well.
10 μL of 1 mM ATP was added to all of the wells, and the reaction was carried out at 37° C. for two hours.

[2] = system: HCT116 cells; experiment: Measurement of cell growth inhibition (Cell Counting Kit-8, four days); details: Homo sapiens, HCT-116, 96 h, read-out: Cell growth-inhibiting activity (IC50, μM) Colon cancer HCT116, HCT116 colon cancer cell line, four days culture;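 further: cells exposed to a range of test concentrations at 37 °C in 5% CO2 for four days, then growth read as absorbance with Cell Counting Kit-8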
Protocol: Cells were maintained under conditions recommended by the provider of each cell line. Cells suspended in a medium were added to solutions containing various concentrations of the test substance, and the cells were cultured at 37° C. in a 5% CO2 incubator. Four days later, Cell Counting Kit-8 was added, and absorbance measurements were taken following the protocol included in the kit.

[3] = read-out: Enzyme-inhibiting activity (IC50, μM) Human HSP90α

SMILES | IC50 [1, 3] | IC50 [2] [µM] | IC50 ([1]; Enzyme-inhibiting activity (IC50, μM) Human HSP90α)
Cc1cc(C)c2cc1C(=O)NCCC[C@@H](C(=O)NCCO)NC(=O)CCSc1cc-2nc(N)n1 [Compound 46, (S)-4-amino-19,21-dimethyl-10,17-dioxo-7-thia-3,5,11,16-tetraazatricyclo[16.3.1.1^2,6]tricosa-1(21),2,4,6(23),18(22),19-hexaene-12-carboxylic acid (2-hydroxyethyl)amide] | 1.1 µM | > 10 | –
Cc1cc(C)c2cc1C(=O)NCCC[C@@H](C(=O)NCC(O)CO)NC(=O)CCSc1cc-2nc(N)n1 (stereo partly drawn) [Compound 48, (S)-4-amino-19,21-dimethyl-10,17-dioxo-7-thia-3,5,11,16-tetraazatricyclo[16.3.1.1^2,6]tricosa-1(21),2,4,6(23),18(22),19-hexaene-12-carboxylic acid (2,3-dihydroxypropyl) amide] | 0.8 µM | > 10 | –
COC(=O)[C@@H]1CCNC(=O)CCSc2cc(nc(N)n2)-c2cc(c(C)cc2C)C(=O)N1 [Compound 63, (S)-4-amino-18,20-dimethyl-10,16-dioxo-7-thia-3,5,11,15-tetraazatricyclo[15.3.1.1^2,6]docosa-1(20),2(22),3,5,17(21),18-hexaene-14-carboxylic acid methyl ester] | 2.8 µM | 0.2 | –
CNC(=O)[C@@H]1CCNC(=O)CCSc2cc(nc(N)n2)-c2cc(c(C)cc2C)C(=O)N1 [Compound 65, (S)-4-amino-18,20-dimethyl-10,16-dioxo-7-thia-3,5,11,15-tetraazatricyclo[15.3.1.1^2,6]docosa-1(20),2(22),3,5,17(21),18-hexaene-14-carboxylic acid methylamide] | 2.8 µM | 9 | –
COCCNC(=O)[C@@H]1CCNC(=O)CCSc2cc(nc(N)n2)-c2cc(c(C)cc2C)C(=O)N1 [Compound 66, (S)-4-amino-18,20-dimethyl-10,16-dioxo-7-thia-3,5,11,15-tetraazatricyclo[15.3.1.1^2,6]docosa-1(20),2(22),3,5,17(21),18-hexaene-14-carboxylic acid (2-methoxyethyl) amide] | 2.5 µM | > 10 | –
Cc1cc(C)c2cc1C(=O)N[C@H](C(=O)N(C)C)CCNC(=O)CCSc1cc-2nc(N)n1 [Compound 67, (S)-4-amino-18,20-dimethyl-10,16-dioxo-7-thia-3,5,11,15-tetraazatricyclo[15.3.1.1^2,6]docosa-1(20),2(22),3,5,17(21),18-hexaene-14-carboxylic acid dimethylamide] | 5.5 µM | > 5 | –
Cc1cc(C)c2cc1C(=O)N[C@H](CO)CCNC(=O)CCSc1cc-2nc(N)n1 [Compound 68, (S)-4-amino-14-hydroxymethyl-18,20-dimethyl-7-thia-3,5,11,15-tetraazatricyclo[15.3.1.1^2,6]docosa-1(20),2(22),3,5,17(21),18-hexaene-10,16-dione] | 1.7 µM | 7.1 | –
COC(=O)[C@H]1CCNC(=O)c2cc(c(C)cc2C)-c2cc(nc(N)n2)SCCC(=O)N1 [Compound 69, (R)-4-amino-18,20-dimethyl-10,16-dioxo-7-thia-3,5,11,15-tetraazatricyclo[15.3.1.1^2,6]docosa-1(20),2,4,6(22),17(21),18-hexaene-12-carboxylic acid methyl ester] | 2.9 µM | 3.2 | –
Cc1cc(C)c2cc1C(=O)NCC[C@@H](C(=O)N1CCOCC1)NC(=O)CCSc1cc-2nc(N)n1 [Compound 70, (S)-4-amino-18,20-dimethyl-12-(morpholine-4-carbonyl)-7-thia-3,5,11,15-tetraazatricyclo[15.3.1.1^2,6]docosa-1(20),2,4,6(22),17(21),18-hexaene-10,16-dione] | 2.7 µM | > 10 | –
Cc1cc(C)c2cc1C(=O)NCC[C@@H](CN1CCOCC1)NC(=O)CCSc1cc-2nc(N)n1 [Compound 71, (S)-4-amino-18,20-dimethyl-12-morpholin-4-ylmethyl-7-thia-3,5,11,15-tetraazatricyclo[15.3.1.1^2,6]docosa-1(20),2(22),3,5,17(21),18-hexaene-10,16-dione] | 2.9 µM | 9.1 | –
Cc1cc(C)c2cc1C(=O)NCC1(CNC(=O)CCSc3cc-2nc(N)n3)COC1 [Compound 72] | 2.2 µM | 1 | –
Cc1cc(C)c2cc1C(=O)NCCC(N)C(=O)NCCSc1cc-2nc(N)n1 (centres unmarked) [Compound 73, 4,12-diamino-18,20-dimethyl-7-thia-3,5,10,15-tetraazatricyclo[15.3.1.1^2,6]docosa-1(20),2(22),3,5,17(21),18-hexaene-11,16-dione] | 2.3 µM | 0.5 | –
CC(=O)NC1CCNC(=O)c2cc(c(C)cc2C)-c2cc(nc(N)n2)SCCNC1=O (centres unmarked) [Compound 74, N-(4-amino-18,20-dimethyl-10,16-dioxo-7-thia-3,5,10,15-tetraazatricyclo[15.3.1.1^2,6]docosa-1(20),2(22),3,5,17(21),18-hexaen-12-yl)acetamide] | 2.3 µM | 5.7 | –
Cc1cc(C)c2cc1C(=O)NCCC(NC(=O)C(F)(F)F)C(=O)NCCSc1cc-2nc(N)n1 (centres unmarked) [Compound 75, N-(4-amino-18,20-dimethyl-11,16-dioxo-7-thia-3,5,10,15-tetraazatricyclo[15.3.1.1^2,6]docosa-1(20),2(22),3,5,17(21),18-hexaen-12-yl)-2,2,2-trifluoroacetamide] | 1.9 µM | 0.5 | –
Cc1cc(C)c2cc1C(=O)NCCC(NC(=O)[C@H](N)C(C)C)C(=O)NCCSc1cc-2nc(N)n1 (some centres unmarked) [Compound 76] | 4.3 µM and 6.2 µM | 5 | –
Cc1cc(C)c2cc1C(=O)NCCC(NC(=O)[C@H](N)Cc1ccc(O)cc1)C(=O)NCCSc1cc-2nc(N)n1 (some centres unmarked) [Compound 77] | – | 6.5 | 5 µM and 3.4 µM
Cc1cc(C)c2cc1C(=O)NCCC(N(C)C)C(=O)NCCSc1cc-2nc(N)n1 (centres unmarked) [Compound 78, 4-amino-12-dimethylamino-18,20-dimethyl-7-thia-3,5,10,15-tetraazatricyclo[15.3.1.1^2,6]docosa-1(20),2(22),3,5,17(21),18-hexaene-11,16-dione] | 2.8 µM | 0.5 | –
Cc1cc(C)c2cc1C(=O)NCCCC(=O)N(CCO)CCSc1cc-2nc(N)n1 [Compound 79, 4-amino-10-(2-hydroxyethyl)-18,20-dimethyl-7-thia-3,5,10,15-tetraazatricyclo[15.3.1.1^2,6]docosa-1(20),2(22),3,5,17(21),18-hexaene-11,16-dione] | 3 µM | 0.4 | –
COCCN1CCSc2cc(nc(N)n2)-c2cc(c(C)cc2C)C(=O)NCCCC1=O [Compound 80, 4-amino-10-(2-methoxyethyl)-18,20-dimethyl-7-thia-3,5,10,15-tetraazatricyclo[15.3.1.1^2,6]docosa-1(20),2(22),3,5,17(21),18-hexaene-11,16-dione] | 2.5 µM | 0.2 | –
Cc1cc(C)c2cc1C(=O)NCCCC(=O)N(CCN1CCOCC1)CCSc1cc-2nc(N)n1 [Compound 81, 4-amino-10-(2-morpholin-4-ylethyl)-18,20-dimethyl-7-thia-3,5,10,15-tetraazatricyclo[15.3.1.1^2,6]docosa-1(20),2(22),3,5,17(21),18-hexaene-11,16-dione] | 3 µM | 1.1 | –
Cc1cc(C)c2cc1C(=O)NCCCC(=O)N(C)CCSc1cc-2nc(N)n1 [Compound 82, 4-amino-10,18,20-trimethyl-7-thia-3,5,10,15-tetraazatricyclo[15.3.1.1^2,6]docosa-1(20),2(22),3,5,17(21),18-hexaene-11,16-dione] | 2.5 µM | 0.2 | –
Cc1cc(C)c2cc1C1=N[C@@H](CCNC(=O)CCSc3cc-2nc(N)n3)CO1 [Compound 83, (S)-4-amino-19,21-dimethyl-10-oxo-7-thia-16-oxa-3,5,11,24-tetraazatetracyclo[16.3.1.1^2,6.1^7,10]tetracosa-1(22),2(23),3,5,17(24),19,21-heptaen-10-one] | 2.8 µM | 0.4 | –

Source: patent US8362236B2, “Macrocyclic compound” (Chugai Seiyaku Kabushiki Kaisha, priority 2007, dated 2013)
